In patent US7700611B2, “Synthesis and crystalline forms of NPY5 antagonist” (Merck Sharp & Dohme Corp., priority 2005, dated 2010):

Test: Thermodynamic stability of crystalline polymorphs (enantiotropic transition, storage)
Type: physicochemical
Conditions: for enantiotropic transition temperature between Form A and Form C: free base polymorphs; for thermodynamic stability of the crystalline form: relative to other crystalline forms of Compound I, temperature range as stated; for solid form stability at room temperature / on storage: room temperature (22° C.)

Row | SMILES | enantiotropic transition temperature between Form A and Form C | thermodynamic stability of the crystalline form | solid form stability at room temperature / on storage
1 | O=C1O[C@]2(CC[C@H](C(=O)Nc3ccn(-c4ccccc4F)n3)CC2)c2cnccc21 [Form C, trans-N-[1-(2-fluorophenyl)-3-pyrazolyl]-3-oxosiro[6-azaisobenzofuran-1(3H),1′-cyclohexane]-4′-carboxamide] | approximately 81 °C | most thermodynamically stable crystalline form of Compound I below 81 °C | not subject to transforming to another crystal form
2 | O=C1O[C@]2(CC[C@H](C(=O)Nc3ccn(-c4ccccc4F)n3)CC2)c2cnccc21 [Form A, trans-N-[1-(2-fluorophenyl)-3-pyrazolyl]-3-oxospiro[6-azaisobenzofuran-1(3H),1′-cyclohexane]-4′-carboxamide] | approximately 81 °C | most thermodynamically stable crystalline form of compound (I) above 81 °C | instability
